The values that follow come from patent publication US20100093985A1, “USE OF AT LEAST ONE CYTOSOLIC PHOSPHOLIPASE A2 INHIBITOR AS A MEDICINE FOR SYMPTOMATIC TREATMENT OF MUCOVISCIDOSIS” (INSTITUT PASTEUR, priority 2006, published 2010).

The structures appear in SMILES notation.

The assay has as its system CFTR+/+ and CFTR−/− mice. The assay can be described thus: Production of mucus in the airways of mice (alcian blue score), with or without LPS from P. aeruginosa. As to conditions: for Average Score (production of mucus in the airways): D4. The assay is classed as in vivo, mouse. As for the experimental part:
The studies were carried out on a cystic fibrosis model established in C57BL/6J mice (Cftr^tmUNC mice) kept on a mixed gene pool by the “Centre de Distribution, de Typage et d'Archivage Animal” UPS44 CNRS in Orléans. Wild-type CFTR^+/+ and mutant CFTR^−/− mice were weaned at 3-4 weeks and fed with food supplemented with a commercial laxative, Movicol®. Without laxative CFTR^−/− mice die rapidly after weaning due to bowel obstructions resulting from a change in the secretion of fluids in the digestive tract.
The experiments were conducted on groups of at least 5 mice aged 5-7 weeks for each category of treatment.
The products used were dissolved in an injectable saline solution (or physiological saline) and injected by intratracheal (i.t.) or intraperitoneal (i.p.) route.
The use protocol was as follows:
1) Aspirin (50 mg/kg, i.p.), 30 minutes before LPS, then each day, once a day;
2) ATK (20 mg/kg, i.p.), 30 minutes before LPS and 24 hours after.
The mice were anesthetized with 2% xylazine (8 mg/kg) and ketamine 1000 (40 mg/kg) before the infusion of LPS (330 μg/kg, i.t.).
Bronchoalveolar lavages (BALs) and lung samplings were carried out 4 days after the infusion of LPS, as indicated below:
The lungs were infused with 4% formaldehyde to remove the blood and immersed in 4% formaldehyde for 48 hours at 4° C. before being added to paraffin.
Sections 5 μm thick were stained with hemotoxylin/eosin, periodic acid-Schiff (PAS) and alcian blue (AB; pH 2.4) according to standard methods (Histologie Normale et Pathologique. P. GANTER & G. Jolies, Gauthier-Villars).
After microscopic examination of the sections stained with alcian blue, which colours the mucus, the positive bronchi and cells were counted. The “number of positive bronchi/number of positive cells” ratio makes it possible to establish the score which serves to evaluate the results of the mucus production studies (see below).

In the case of `CC(=O)Oc1ccccc1C(=O)O` [asp, aspirin], the “Average Score (production of mucus in the airways)” value is recorded as 0 (CFTR+/+ mice, LPS 330 μg/kg i.t. + aspirin 50 mg/kg i.p.); 0.25 (CFTR+/+ mice, control (physiological saline, no LPS) + aspirin 50 mg/kg i.p.); 0 (CFTR−/− mice, LPS 330 μg/kg i.t. + aspirin 50 mg/kg i.p.); 0.50 (CFTR−/− mice, control (physiological saline, no LPS) + aspirin 50 mg/kg i.p.). For the setting “CFTR−/− mice stimulated by infusion with LPS of Pseudomonas aeruginosa”, the secretion of mucus result is listed as “inhibited”.
